The source made the active and inactive calls. The calls are words filed in the database; no cut-off is given here.
Tests used:
Assay type in all cases: functional
[1] = test system: Setaria cervi; test: Percent inhibition of filarial parasite Setaria cervi by compound at 20 ug/mL concentration
[2] = test system: Setaria cervi; test: Percent inhibition of filarial parasite Setaria cervi by compound at 40 ug/mL concentration
[3] = test system: Setaria cervi; test: Percent inhibition of filarial parasite Setaria cervi by compound at 10 ug/mL concentration; NI = no inhibition
[4] = test system: Setaria cervi; test: Percent inhibition of filarial parasite Setaria cervi by compound at 5 ug/mL concentration; NI = no inhibition
[5] = test system: Setaria cervi; test: Percent inhibition of filarial parasite Setaria cervi by compound at 10 ug/mL concentration
[6] = test system: Setaria cervi; test: Percent inhibition of filarial parasite Setaria cervi by compound at 5 ug/mL concentration

Structure (SMILES)	inhibition [1] [%]	inhibition [2] [%]	inhibition [3]	inhibition [4]	inhibition [5] [%]	inhibition [6] [%]
CCCNc1cc(-c2cccs2)nc(N)n1	60	60	inactive	inactive		
Nc1nc(NCCO)cc(-c2cccs2)n1	60	60	inactive	inactive		
CCn1cc(C(=O)O)c(=O)c2ccc(C)nc21	40	80		inactive	20	
CCN(CC)C(=O)N1CCN(C)CC1	10	45	inactive	inactive		
CO[C@@H]1[C@@H](OC(N)=O)[C@@H](O)[C@H](Oc2ccc3c(O)c(NC(=O)c4ccc(O)c(CC=C(C)C)c4)c(=O)oc3c2C)OC1(C)C	20	80		inactive	10	
Nc1nc(NCCCN2CCOCC2)cc(-c2cccs2)n1	80	80			80	60
CN1CCN(c2cc(-c3cccs3)nc(-c3ccc(N)cc3)n2)CC1	80	80			80	25
CN1CCN(c2cc(-c3cccs3)nc(N)n2)CC1	80	80			80	60
Nc1ccc(-c2nc(NCCCN3CCOCC3)cc(-c3cccs3)n2)cc1	70	70			70	40
Nc1nc(NCCN2CCOCC2)cc(-c2cccs2)n1	80	80		inactive	80	
